Reference: US9796716B2, “Selective inhibitors of Tec and Src protein kinase families” (Pharmascience, Inc., priority 2012, dated 2017)
Read-outs that look alike come from different tables or passages of the source.

Tests used:
[1] = test system: Splenocytes (B cell proliferation stimulated with anti-IgM F(ab′)2); experiment: Splenic Cell Proliferation Assay; format: cell-based; settings: CD1 mouse splenocytes, 2.5 ug/ml anti-IgM F(ab′)2 for 72 h, Cell Titer-Glo, read-out: EC50 (nM), Inhibition of splenic cell proliferation
Method: Splenic Cell Proliferation Assay
Splenocytes were obtained from 6 week old male CD1 mice (Charles River Laboratories Inc.). Mouse spleens were manually disrupted in PBS and filtered using a 70 um cell strainer followed by ammonium chloride red blood cell lysis. Cells were washed, resuspended in Splenocyte Medium (HyClone RPMI supplemented with 10% heat-inactivated FBS, 0.5× non-essential amino acids, 10 mM HEPES, 50 uM beta mercaptoethanol) and incubated at 37° C., 5% CO2 for 2 h to remove adherent cells. Suspension cells were seeded in 96 well plates at 50,000 cells per well and incubated at 37° C., 5% CO2 for 1 h. Splenocytes were pre-treated in triplicate with 10,000 nM curves of Formula 1 compounds for 1 h, followed by stimulation of B cell proliferation with 2.5 ug/ml anti-IgM F(ab′)2 (Jackson ImmunoResearch) for 72 h. Cell proliferation was measured by Cell Titer-Glo Luminescent Assay (Promega). EC50 values (50% proliferation in the presence of compound as compared to vehicle treated controls) were calculated from dose response compound curves using GraphPad Prism Software.

[2] = target: recombinant human full-length Bruton Agammaglobulinemia Tyrosine Kinase (Btk) (Homo sapiens (Human), UniProt Q06187); experiment: Btk Kinase Inhibition Assay (fluorescence polarization); format: biochemical; settings: 10 μM ATP, 250 μM substrate, 60 minutes; Ki calculated from IC50 using the Cheng-Prusoff equation
recombinant human full-length Bruton Agammaglobulinemia Tyrosine Kinase (Btk), sequence (Q06187 whole entry): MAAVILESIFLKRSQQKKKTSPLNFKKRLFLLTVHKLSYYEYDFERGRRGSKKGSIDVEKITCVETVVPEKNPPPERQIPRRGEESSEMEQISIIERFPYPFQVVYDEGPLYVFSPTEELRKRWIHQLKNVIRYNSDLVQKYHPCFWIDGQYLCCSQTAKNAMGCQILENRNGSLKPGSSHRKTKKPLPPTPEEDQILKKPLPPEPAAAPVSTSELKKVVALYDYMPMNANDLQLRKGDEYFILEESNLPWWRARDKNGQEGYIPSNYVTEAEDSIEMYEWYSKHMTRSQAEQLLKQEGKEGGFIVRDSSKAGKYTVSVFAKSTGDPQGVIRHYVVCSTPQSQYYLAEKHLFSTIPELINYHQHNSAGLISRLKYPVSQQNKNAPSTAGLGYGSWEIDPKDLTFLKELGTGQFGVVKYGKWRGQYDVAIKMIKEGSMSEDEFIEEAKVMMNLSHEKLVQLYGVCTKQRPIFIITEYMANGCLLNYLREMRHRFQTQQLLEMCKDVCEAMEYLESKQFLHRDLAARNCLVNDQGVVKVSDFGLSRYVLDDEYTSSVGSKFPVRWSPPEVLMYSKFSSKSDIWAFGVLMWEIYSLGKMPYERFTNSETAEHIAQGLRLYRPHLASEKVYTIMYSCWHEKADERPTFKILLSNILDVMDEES
Method: Kinase Binding Btk Kinase Inhibition Assay
Fluorescence polarization-based kinase assays were performed in 384 well-plate format using histidine tagged recombinant human full-length Bruton Agammaglobulinemia Tyrosine Kinase (Btk) and a modified protocol of the KinEASE™ FP Fluorescein Green Assay supplied from Millipore. Kinase reaction were performed at room temperature for 60 minutes in presence of 250 μM substrate, 10 μM ATP and variable test article concentrations. The reaction was stopped with EDTA/kinase detection reagents and the polarization measured on a Tecan 500 instrument. From the dose-response curve obtained, the IC50 was calculated using Graph Pad Prisms® using a non linear fit curve. The Km for ATP on each enzyme was experimentally determined and the Ki values calculated using the Cheng-Prusoff equation (see: Cheng Y, Prusoff W H. (1973) Relationship between the inhibition constant (K1) and the concentration of inhibitor which causes 50 percent inhibition (I50) of an enzymatic reaction”. Biochem Pharmacol 22 (23): 3099-108).

Balb/c mice = experiment: Mouse Arthus; format: in vivo; settings: oral gavage at 30 mg/kg, 1 h pre-treatment
Method: Mouse Arthus studies were conducted as reported in Braselmann S, Taylor V, Zhao H, Wang S, Sylvain C, Baluom M, Qu K, Herlaar E, Lau A, Young C, Wong B R, Lovell S, Sun T, Park G, Argade A, Jurcevic S, Pine P, Singh R, Grossbard E B, Payan D G, Masuda E S: R406 an orally available spleen tyrosine kinase inhibitor blocks fc receptor signaling and reduces immune-complex mediated inflammation. J Pharmacol Exp Ther, 2006, 319:998-1008.
In summary, female Balb/c mice (6-7 weeks on arrival) were habituated to the animal facility for at least 4 days. On the day of the experiment, animals were pre-treated (t=minus 1 h) with compound or vehicle alone by gavage (PO). At t=0, animals were injected intravenously (IV; 0.1 mL/mouse) with saline containing chicken ovalbumin and Evan's blue (10 mg/mL of each). Ten minutes later (t=10 min), animals were anesthesized with isoflurane, the dorsal surface was shaved and rabbit anti-chicken ovalbumin antibody was then injected intradermally at one site on the right side of the animal (25 μg in 30 μL). The same amount of isotype control antibody was then injected on the left side.
The animals were then returned to their home cage and skin punches (8 mm) were collected from each injection site four hours later. The samples were placed in 1 mL formamide overnight at 80 degrees C. (1 skin biopsy per 1 mL formamide in a glass tube). The amount of Evan's blue in the formamide solution was then assessed by spectrophotometry (630 nm) as a measure of serum extravasation into the dermis.

B10R111 mice = experiment: Mouse CIA model; format: in vivo; settings: oral gavage at 30 mg/kg (BID)
Method: Mouse CIA model was performed using the methods described by Trentham D E, Townes A S, Kang A H. Autoimmunity to Type II Collagen: An Experimental Model of Arthritis. J Exp Med 1977; 857-868, and Bendele A M. Animal Models of Rheumatoid Arthritis. J Musculoskel Interact 2001; 377-385.
In summary, male B10R111 mice (7-9 wks on arrival) were habituated to the animal facility for at least 4 days. On experimental day 0 mice were anaesthetized with isoflurane and the dorsal surface was shaved. Collagen, emulsified in Freund's complete adjuvant (CFA) supplemented with additional mycobacterium tuberculosis (TB) H37Ra, was injected intradermally at the base of the tail (0.15 mL/animal; 2 mg/mL collagen and 2.5 mg/mL TB in CFA). This CFA treatment was repeated on day 15.
From day 15 to the end of the study animals were scored daily for signs of arthritis. On the first day of disease (RA Day 1) animals were recruited to the study and grouped using a balanced design based on arthritis score. Once recruited, animals were weighed and dosed twice daily by gavage (PO, BID). Recruited animals were then scored twice a week on RA days 1, 5, 8 and 12. At the end of the study (RA day 12) animals were weighed and scored.

| SMILES | EC50 ([1]; Mus musculus, Splenocyte, 72 h) [nM] | Ki [2] [nM] | efficacy in mouse Arthus (Evan's blue extravasation) (Balb/c mice) | efficacy in mouse CIA model (arthritis score) (B10R111 mice) | EC50 [1] [nM] |
| --- | --- | --- | --- | --- | --- |
| Nc1ncnc2c1c(-c1ccc(Oc3cccc(OCc4cncs4)c3)cc1)nn2C1CCCC1 [Compound 14] | < 100 | < 100 | demonstrated efficacy | demonstrated efficacy |  |
| N#Cc1ccccc1COc1cccc(Oc2ccc(-c3nn(C4CCCC4)c4ncnc(N)c34)cc2)c1 [Compound 15] |  | < 100 | demonstrated efficacy |  | < 100 |
| Nc1ncnc2c1c(-c1ccc(Oc3cccc(OCc4cncs4)c3)cc1)nn2C1CCOCC1 [Compound 24] | < 100 | < 100 | demonstrated efficacy |  |  |
| Nc1ncnc2c1c(-c1ccc(Oc3cc(F)cc(OCc4cncs4)c3)cc1)nn2C1CCOCC1 [Compound 46] | < 100 | < 100 | demonstrated efficacy |  |  |
| Nc1ncnc2c1c(-c1ccc(Oc3cc(F)cc(OCc4cncs4)c3)cc1)nn2C1CCCC1 [Compound 50] | < 100 | < 100 | demonstrated efficacy |  |  |
| Cc1ncc(COc2cc(F)cc(Oc3ccc(-c4nn(C5CCOCC5)c5ncnc(N)c45)cc3)c2)s1 [Compound 54] | < 100 | < 100 | demonstrated efficacy |  |  |
| Cc1ncc(COc2cc(F)cc(Oc3ccc(-c4nn(C5CCCC5)c5ncnc(N)c45)cc3)c2)s1 [Compound 58] | < 100 | < 100 | demonstrated efficacy | demonstrated efficacy |  |
| Cc1ncc(COc2cc(F)cc(Oc3ccc(-c4nn(C5CCOCC5)c5ncnc(N)c45)cc3F)c2)s1 [Compound 59] | < 100 | < 100 | demonstrated efficacy |  |  |
| Cc1ncc(COc2cccc(Oc3ccc(-c4nn(C5CCOCC5)c5ncnc(N)c45)cc3F)c2)s1 [Compound 62] | < 100 | < 100 | demonstrated efficacy |  |  |
| Cn1cncc1COc1cc(F)cc(Oc2ccc(-c3nn(C4CCOCC4)c4ncnc(N)c34)cc2)c1 [Compound 71] | < 100 | < 100 | demonstrated efficacy |  |  |
| Cc1ncc(COc2cc(F)cc(Oc3ccc(-c4nn(C(C)C)c5ncnc(N)c45)cc3)c2)s1 [Compound 78] | < 100 | < 100 | demonstrated efficacy | demonstrated efficacy |  |
| CC(C)n1nc(-c2ccc(Oc3cc(F)cc(OCc4cncn4C)c3)cc2)c2c(N)ncnc21 [Compound 79] | < 100 | < 100 | demonstrated efficacy |  |  |
| Cn1cncc1COc1cc(F)cc(Oc2ccc(-c3nn(C4CCCC4)c4ncnc(N)c34)cc2)c1 [Compound 82] | < 100 | < 100 | demonstrated efficacy |  |  |
| Cn1cncc1COc1cc(F)cc(Oc2ccc(-c3nn(CCO)c4ncnc(N)c34)cc2)c1 [Compound 90] | 100 to 1000 | < 100 | demonstrated efficacy |  |  |
| Cc1ncc(COc2cc(F)cc(Oc3ccc(-c4nn(C(CO)CO)c5ncnc(N)c45)cc3)c2)s1 [Compound 100] | < 100 | < 100 | demonstrated efficacy |  |  |
| Cn1cncc1COc1cc(F)cc(Oc2ccc(-c3nn(C4CCCCC4)c4ncnc(N)c34)cc2)c1 [Compound 103] | < 100 | < 100 | demonstrated efficacy |  |  |
| Cc1ncc(COc2cc(F)cc(Oc3ccc(-c4nn(C5CCOCC5)c5ncnc(N)c45)cc3)c2)cn1 [Compound 106] | < 100 | < 100 | demonstrated efficacy |  |  |
| Cc1ncc(COc2cc(F)cc(Oc3ccc(-c4nn(C5CCCC5)c5ncnc(N)c45)cc3)c2)cn1 [Compound 107] | < 100 | < 100 | demonstrated efficacy |  |  |
| Cc1ncc(COc2cc(F)cc(Oc3ccc(-c4nn(C5CCOCC5)c5ncnc(N)c45)cc3)c2)n1C [Compound 108] | < 100 | < 100 | demonstrated efficacy |  |  |
| Cc1ncc(COc2cc(F)cc(Oc3ccc(-c4nn(CC(C)(C)O)c5ncnc(N)c45)cc3)c2)s1 [Compound 117] | < 100 | < 100 | demonstrated efficacy |  |  |
| Cc1ncc(COc2cc(F)cc(Oc3ccc(-c4nn(CC(C)(C)O)c5ncnc(N)c45)cc3)c2)n1C [Compound 121] | 100 to 1000 | < 100 |  |  |  |
| Cc1ncc(COc2cc(F)cc(Oc3ccc(-c4nn(CC(C)(C)O)c5ncnc(N)c45)cc3)c2)cn1 [Compound 122] | 100 to 1000 | < 100 |  |  |  |
| Cc1ncc(COc2cc(F)cc(Oc3ccc(-c4nn(C(C)C)c5ncnc(N)c45)cc3)c2)n1C [Compound 123] | < 100 | < 100 |  |  |  |
| Cc1ncc(COc2cc(F)cc(Oc3ccc(-c4nn(CC5(C)COC5)c5ncnc(N)c45)cc3)c2)n1C [Compound 124] | 100 to 1000 | < 100 |  |  |  |
| Cc1ncc(COc2cc(F)cc(Oc3ccc(-c4nn(CC5(C)COC5)c5ncnc(N)c45)cc3)c2)s1 [Compound 125] | < 100 | < 100 | demonstrated efficacy |  |  |
| Cc1ccc(COc2cc(F)cc(Oc3ccc(-c4nn(CC5(C)COC5)c5ncnc(N)c45)cc3)c2)cn1 [Compound 126] | 100 to 1000 | < 100 |  |  |  |
| Cc1ncc(COc2cc(F)cc(Oc3ccc(-c4nn(C(C)(C)C)c5ncnc(N)c45)cc3)c2)s1 [Compound 127] | < 100 | < 100 |  |  |  |
| CC(C)n1nc(-c2ccc(Oc3cc(F)cc(OCc4ccc(CO)nc4)c3)cc2)c2c(N)ncnc21 [Compound 128] | < 100 | < 100 |  |  |  |
| Cc1ncc(COc2cc(F)cc(Oc3ccc(-c4nn(C(C)(C)C)c5ncnc(N)c45)cc3)c2)cn1 [Compound 129] | < 100 | < 100 |  |  |  |
| Cc1ncc(COc2cc(F)cc(Oc3ccc(-c4nn(C(CO)CO)c5ncnc(N)c45)cc3)c2)cn1 [Compound 130] | 100 to 1000 | < 100 |  |  |  |
